In general, IC50 refers to the concentration at which inhibition is half-maximal. As a reminder, the Kd is a measure of binding affinity in units of concentration.

One assay relates to MDA-MB-231. The experiment in a line: Whole-cell binding assay on OBOC peptide beads. The assay is classed as cell-based, human. To be noted: peptide on TentaGel beads incubated with cells at 10^6 cells/ml; repeated 3 times. How it is done:
(§1) The beads were washed extensively with double-distilled water and phosphate-buffered saline (PBS; Welgene Inc., Korea) before screening. Cancer and normal cells were detached from culture dishes with trypsin/EDTA (Gibco), washed with their corresponding culture medium, resuspended at 10^6 cells/ml, and incubated with OBOC beads in Petri dishes in a humidified CO2 incubator at 37 °C with shaking (60 rpm). Beads bound by cells appeared under a microscope as rosettes in which a central bead was covered by one or more layers of cells. The positive beads were picked with a pipette under an inverted microscope, treated with guanidine-HCL (8 M, 20 min) to remove cells and proteins on the bead surface, and subjected to a second round of screening with normal breast epithelial cells to eliminate false positive binding.
(§2) Note : Semiquantitative relative binding activity: “++++” very strong binding (>40 cells per bead), “+++” strong binding (30
(§3) -20 cells per bead), “+ +” moderate binding (20 - 10 cells per bead), “+” weak binding (5-10 cells per bead), “-” no binding. […]
(§4) Figure S1. A, Steps performed in peptide library synthesis and screening. 1, The split-mix synthesis method was performed to construct the combinatorial OBOC libraries. […]
(§5) sized. 3, OBOC libraries were incubated with cancer cells in a CO2 incubator. 4, Beads carrying ligands with an affinity for cell surface molecules became covered with cells. 5, The positive beads were picked with a pipette under an inverted microscope. 6, The peptide sequences for positive beads were determined by Edman microse - […]
(§6) peptide libraries. B, The binding specificities of the peptides against cancer cell and normal cells were deter- […]
(§7) breast and colorectal cancer cells and normal breast and colorectal cells were re-suspended at 10^6 cells/ml and incubated with beads. All experiments were repeated 3 times. Scale bar, 200 μm.

The subject of the next assay is MCF-10A. The experiment in a line: Whole-cell binding assay on OBOC peptide beads. The assay is classed as cell-based, human. Conditions: peptide on TentaGel beads incubated with cells at 10^6 cells/ml; repeated 3 times. As for the experimental part:
as §1, §2, §3, §4, §5, §6, §7

A further assay deals with MCF-10A cells. The experiment in a line: cells. Conditions: Homo sapiens, MCF-10A, 48 h, read-out: IC50, MCF-10A cells. As for the experimental part:
(§8) Cancer and normal cells (1 × 10^4 cells/well) were seeded in 96-well plates, incubated for 24 h, and then treated with increasing concentrations of AGM-330, PTX, and AGM-330-PTX for 48 h. Cell viability was assessed by the CellVia WST-1 assay (Young In Frontier) according to the manufacturer's instructions. The numbers of viable cells were measured at a wavelength of 450 nm using a VersaMax ELISA plate reader (Molecular Devices, San Jose, CA, USA).
(§9) Figure S3. A-C, Cancer and normal cells (1 × 10^4 cells/well) were seeded in 96-well plates. After 24 h of incuba-tion, the cells were treated with an increasing concentration of dimeric or tetrameric AGM-330 for 48 h. The viability of cells grown in 0 % FBS (A), 5 % FBS (B) or 10 % FBS (C) was assessed by a CellVia WST-1 assay (Young In Frontier, Seoul, Korea) according to the manufacturer’s instruction. The numbers of viable cells were measured at a wavelength of 450 nm using an VersaMax ELISA plate reader (Molecular Devices). D, E, Binding specificity of AGM-330. A whole-cell binding assay was performed to determine the cell binding of AGM-330 in 1 % FBS (D) or 5 % FBS (E). Scale bar, 200 μm.

Another assay relates to MDA-MB-231 cells. The experiment in a line: cells. Conditions: Homo sapiens, MDA-MB-231, 48 h, read-out: IC50, MDA-MB-231 cells. As for the experimental part: as §8, §9
Another assay has as its system MDA-MB-231-luc xenograft. The experiment in a line: Tumorigenesis experiment, MDA-MB-231-luc breast cancer xenograft. To be noted: tail vein twice a week; for average tumor volume: day 21, n = 5; for final average tumor weight: n = 5. How it is done: All animal experiments were performed in accordance with IACUC guidelines (GIST-2019-040). For tumorigenesis experiments, anesthetized 6-week-old female NOD-scid Il2rg^-^/^- mice (NPG^TM, VITALSTAR) were inoculated in the mammary fat pad with 1 × 10^6 MDA-MB-231-luc cells in a 100 μl volume (n = 5 for each group). After tumor cell inoculation, when the tumor volume reached approximately 100 mm^3, the mice were randomly divided into the following five groups: (i) control, (ii) low-dose paclitaxel (2 mg/kg), (iii) high-dose paclitaxel (10 mg/kg), (iv) AGM-330 (16.68 mg/kg, molar equivalent to 2 mg/kg of PTX), and (v) AGM-330-PTX (19.05 mg/kg, molar equivalent to 2 mg/kg of PTX). The tumor size was measured twice a week, and the tumor volume was calculated with the following formula: volume (mm^3) = [length (mm)] × [width (mm)]^2 × 0.5. For the bioluminescent imaging experiment, D-luciferin (150 mg/kg; PerkinElmer) was intraperitoneally injected into each mouse, and an IVIS 100 imaging system (Xenogen, Corporation, Alameda, CA) was used for bioluminescent monitoring. Mice were anesthetized with vaporized isofurane (BK Pharm, Ilsan, Korea) and placed in an imaging chamber. After 10 min, each animal was imaged with an exposure time of 1 min. All bioluminescent image data were obtained using Living Image software (version 4.5.2, PerkinElmer). Photons detected from tumors were converted to average radiance values (photon/sec/cm^2/sr), which are quantitative data obtained from a region of […] (ROI) and include the photons emitted by bioluminescent cells from an assigned rectangular area over the whole body of each mouse.
A, Cell proliferation inhibition by AGM-330-PTX treatment was determined for 48 h by the WST assay in multiple breast and colorectal cancer cells and in normal cells. B, Schematic representation of the experimental protocol as described in the materials and methods section. Anesthetized 6‑week-old […] NPG mice were inoculated with a 1:1 mix of Matrigel and 1 × 10^6 MDA-MB-231-luc cells into the mammary fat pad. When the volume of primary tumors reached approximately 100 mm^3, tumor-bearing mice were treated with vehicle (PBS), PTX (2 or 10 mg/kg), AGM-330 (16.68 mg/kg, molar equivalent to 2 mg/kg of PTX), or AGM-330-PTX (19.05 mg/kg, molar equivalent to 2 mg/kg of PTX; n = 5/group). C-E, The therapeutic effect of AGM-330-PTX was evaluated in breast cancer xenograft models. C, Primary tumor volume was measured twice a week until the day of sacrifice. The primary tumor volume was calculated by the formula volume (mm^3) = (length (mm)) × (width (mm))^2 × 0.5. D, On the day of sacrifice, all primary tumors were isolated, and (E) the primary tumor weights were evaluated. F-I, Immunohistochemistry (IHC) sections of representative tumors with Ki-67 (F,H) and TUNEL (G,I) staining. Nuclei were stained with DAPI (blue). Scale bar, 50 µm. Bar graphs represent the mean ± SD, and statistical analyses were performed by one-way ANOVA with Dunnett's multiple comparison. *, **, and *** indicate P < 0.05, P < 0.01, and P < 0.001, respectively.
Following in vitro proliferation analysis on cancer lines, we investigated whether AGM-330-PTX could be a potential therapeutic agent in vivo. We inoculated MDA-MB-231-luc cells into the mammary fat pad of NPG mice. After the […] tumors grew to 100 mm^3, comparative efficacy studies were performed by dividing the animals into five groups (n = 5/group) treated with vehicle (PBS), PTX (2 or 10 mg/kg, respectively), AGM-330 (16.68 mg/kg, molar equivalent to 2 mg/kg of PTX), or AGM-330-PTX (19.05 mg/kg, molar equivalent to 2 mg/kg of PTX) twice a week by tail vein injection (Figure 5B). Tumor growth was monitored by measuring volumes twice a week with a caliber rule over the course of 3 weeks.
Figure S11. A-E, NPG TM mice bearing MDA-MB-231-luc tumors were treated twice a week for 21 days with […]

Assay [1] addresses T1, full length recombinant NCL (OriGene) (UniProt P19338 1-710).
T1 construct: nucleolin, full length recombinant protein from OriGene; no catalogue number, species or tags are printed; source: bought: OriGene
The experiment in a line: SPR; Biacore T-200, 25 °C; full length recombinant NCL amine-coupled on CM5 (about 1000 RU); AGM-330 20 nM - 2.5 μM injected at 30 μl/min; HBS-EP (10 mM HEPES pH 7.4, 0.15 M NaCl, 3.4 mM EDTA, 0.05% Triton-X 100); KD = kd/ka. Conditions: both partners purified.

T1 sequence (P19338 whole entry): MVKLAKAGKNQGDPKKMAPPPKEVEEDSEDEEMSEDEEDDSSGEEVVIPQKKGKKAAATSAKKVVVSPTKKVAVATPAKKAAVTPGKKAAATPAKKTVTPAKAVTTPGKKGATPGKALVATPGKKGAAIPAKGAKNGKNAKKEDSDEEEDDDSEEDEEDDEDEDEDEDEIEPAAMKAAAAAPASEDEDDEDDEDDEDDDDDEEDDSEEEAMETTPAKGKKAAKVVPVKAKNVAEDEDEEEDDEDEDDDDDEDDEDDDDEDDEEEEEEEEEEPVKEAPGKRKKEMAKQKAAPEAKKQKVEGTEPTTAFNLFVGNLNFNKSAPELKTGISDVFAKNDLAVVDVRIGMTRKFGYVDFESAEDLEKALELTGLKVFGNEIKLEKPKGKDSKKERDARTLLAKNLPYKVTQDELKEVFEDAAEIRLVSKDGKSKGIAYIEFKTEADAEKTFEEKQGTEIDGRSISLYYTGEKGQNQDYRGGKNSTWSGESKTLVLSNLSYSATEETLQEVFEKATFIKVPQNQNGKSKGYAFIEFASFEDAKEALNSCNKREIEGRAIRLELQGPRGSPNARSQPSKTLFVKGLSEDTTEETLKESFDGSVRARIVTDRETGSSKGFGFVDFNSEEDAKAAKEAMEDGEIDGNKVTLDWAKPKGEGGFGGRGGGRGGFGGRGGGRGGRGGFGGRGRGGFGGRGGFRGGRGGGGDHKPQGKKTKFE

Take “KRRRRERAG [AGM-336, 9mer peptide hit from OBOC screening]”: the “Semiquantitative relative binding activity, MDA-MB-231” value in the assay with MDA-MB-231 was “+++ (strong binding (30 -20 cells per bead))”. Moreover, the “Semiquantitative relative binding activity, MCF-10A” value with MCF-10A is reported as “+++ (strong binding (30 -20 cells per bead))”.

Take “RWLKNKKAR [AGM-334, 9mer peptide hit from OBOC screening]”: the “Semiquantitative relative binding activity, MDA-MB-231” value with MDA-MB-231 is “++ (moderate binding (20 - 10 cells per bead))”. Moreover, the “Semiquantitative relative binding activity, MCF-10A” value with MCF-10A is “+++ (strong binding (30 -20 cells per bead))”.

For the molecule ADHRHRRSG [AGM-331], in the assay with MDA-MB-231, the “Semiquantitative relative binding activity, MDA-MB-231” value is recorded as “++++ (very strong binding (>40 cells per bead))”. The “Semiquantitative relative binding activity, MCF-10A” value with MCF-10A was “++ (moderate binding (20 - 10 cells per bead))”.

For the molecule “FGRLKKPLK [AGM-335, 9mer peptide hit from OBOC screening]”, the “Semiquantitative relative binding activity, MDA-MB-231” value in the assay on MDA-MB-231 is given as “+ (weak binding (5-10 cells per bead))”. Further, the “Semiquantitative relative binding activity, MCF-10A” value in the assay with MCF-10A is “+ (weak binding (5-10 cells per bead))”.

As for `CC(=O)O[C@H]1C(=O)[C@@]2(C)[C@H]([C@H](OC(=O)c3ccccc3)[C@]3(O)C[C@H](OC(=O)[C@H](O)[C@@H](NC(=O)c4ccccc4)c4ccccc4)C(C)=C1C3(C)C)[C@]1(OC(C)=O)CO[C@@H]1C[C@@H]2O` [PTX, paclitaxel, reference compound], the IC50 with MCF-10A cells turned out to be 450 nM; with MDA-MB-231 cells, 370 nM. Also, the average tumor volume in the assay on MDA-MB-231-luc xenograft (2 mg/kg) was 1671 ± 199 mm^3; in the assay on MDA-MB-231-luc xenograft (10 mg/kg), 988 ± 78 mm^3. Moreover, the “final average tumor weight” value in the assay on MDA-MB-231-luc xenograft (2 mg/kg) is given as 2.1 ± 0.4 g; with MDA-MB-231-luc xenograft (10 mg/kg), 1.5 ± 0.1 g.

With “RFLKNKKAR [AGM-333, 9mer peptide hit from OBOC screening]”, the “Semiquantitative relative binding activity, MDA-MB-231” value with MDA-MB-231 was “++ (moderate binding (20 - 10 cells per bead))”. Besides, the “Semiquantitative relative binding activity, MCF-10A” value in the assay on MCF-10A is “+++ (strong binding (30 -20 cells per bead))”.

As to “KRRRKAPTD [AGM-337, 9mer peptide hit from OBOC screening]”, the “Semiquantitative relative binding activity, MDA-MB-231” value in the assay with MDA-MB-231 was “+ (weak binding (5-10 cells per bead))”. The “Semiquantitative relative binding activity, MCF-10A” value in the assay on MCF-10A is given as “+ (weak binding (5-10 cells per bead))”.

On to AVARARRRR [AGM-332], for which the “Semiquantitative relative binding activity, MDA-MB-231” value in the assay on MDA-MB-231 is given as “+++ (strong binding (30 -20 cells per bead))”. Moreover, the “Semiquantitative relative binding activity, MCF-10A” value in the assay on MCF-10A is given as “++ (moderate binding (20 - 10 cells per bead))”.

B1: AGM-330 (tetrameric multiple-antigen-peptide form) (peptide)
peptide: RHGAMVYLK
modifications: PEG12 after the C-terminal Lys of each RHGAMVYLK arm (RHGAMVYLK-PEG12-OH), joined to a trilysine core
notes: arm of the dendrimer; picked from a one-bead-one-compound library on MDA-MB-231 cells; The core is not written as a chain; also called tetrameric AGM-330; source: synthetic peptide (AnyGen, solid-phase peptide synthesis)
In the case of B1, the Kd in assay [1] came out at 57.7 ± 12 nM.
